Counter-ions that a name gives are not always drawn.
Target: T1, human LOXL2 (Homo sapiens, UniProt Q9Y4K0)
T1 construct: expressed in transfected cells; secreted protein in 10-20x concentrated conditioned media
T1 sequence (Q9Y4K0 26-774): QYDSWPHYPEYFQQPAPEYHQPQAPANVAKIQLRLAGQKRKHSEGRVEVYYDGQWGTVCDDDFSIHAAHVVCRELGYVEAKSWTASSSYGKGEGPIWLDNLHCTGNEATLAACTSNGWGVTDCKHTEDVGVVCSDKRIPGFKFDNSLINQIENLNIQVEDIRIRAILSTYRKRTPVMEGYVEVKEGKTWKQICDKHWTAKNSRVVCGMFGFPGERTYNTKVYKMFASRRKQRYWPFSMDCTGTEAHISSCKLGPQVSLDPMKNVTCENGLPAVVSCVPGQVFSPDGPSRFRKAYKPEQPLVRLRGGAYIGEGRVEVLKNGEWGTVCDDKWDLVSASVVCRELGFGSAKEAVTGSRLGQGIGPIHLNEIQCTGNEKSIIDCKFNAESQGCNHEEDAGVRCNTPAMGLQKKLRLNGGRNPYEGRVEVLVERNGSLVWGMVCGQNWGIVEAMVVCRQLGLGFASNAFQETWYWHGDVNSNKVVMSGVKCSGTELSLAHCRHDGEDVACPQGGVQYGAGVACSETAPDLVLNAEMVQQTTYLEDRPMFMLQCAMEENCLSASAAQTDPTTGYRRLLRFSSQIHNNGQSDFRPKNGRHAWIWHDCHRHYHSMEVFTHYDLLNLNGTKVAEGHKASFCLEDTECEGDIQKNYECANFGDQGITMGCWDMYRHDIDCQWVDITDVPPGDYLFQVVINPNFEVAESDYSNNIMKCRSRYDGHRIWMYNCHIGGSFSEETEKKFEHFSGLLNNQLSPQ
Assay: Human LOXL2 Amine Oxidase Activity Assay (Amplex Red fluorescence)
Assay type: biochemical
Settings: concentrated conditioned media from CHO cells stably expressing human LOXL2, test compound incubated 2 h at 37° C., pH8, DAP substrate
Experimental: Example B-1: Human LOXL2 Amine Oxidase Activity Assay
LOXL2 amine oxidase activity is evaluated by measuring Amplex Red fluorescence using 10-20× concentrated conditioned media from CHO cells stably expressing human LOXL2. To assay for amine oxidase activity, 10 μL of the concentrated conditioned media is incubated with 2 μL of test compound in DMSO and 73 μL Assay Buffer (50 mM Borate Buffer, pH8) for 2 h at 37° C. After the 2 h incubation, 5 μl of 10 mM 1,5-Diaminopentane (DAP) diluted in Assay Buffer and 10 μl of Amplex Red Mix (8.5 μl Assay Buffer+0.5 μl of 10 mM Amplex Red+1 μl of 500 U/ml Horseradish Peroxidase) are added and the plate mixed and immediately placed on the FlexStaion for fluorescence measurements. Fluorescence is read in kinetic mode every 2 min for 1 hour at excitation=544 and emission=590. The amine oxidase activity is calculated from the slope of the linear portion of the curve.

SMILES: NCc1cc(=O)c2cc(C(=O)N3C[C@@H](O)[C@H](F)C3)ccc2o1 (racemic) [Compound 1-25, Racemic-trans-2-(aminomethyl)-6-(3-fluoro-4-hydroxypyrrolidine-1-carbonyl)-4H-chromen-4-one hydrochloride]
- IC50: 300 to 1000 nM

SMILES: NCc1cc(=O)c2cc(C(=O)N3CCC(C(=O)O)C3)ccc2o1 (single isomer, unassigned) [Compound 1-37, (R) or (S)-1-(2-(Aminomethyl)-4-oxo-4H-chromene-6-carbonyl)pyrrolidine-3-carboxylic Acid hydrochloride]
- IC50: > 1000 nM

SMILES: NCc1cc(=O)c2cc(C(=O)N3CCC(C(=O)O)C3)ccc2o1 (single isomer, unassigned) [Compound 1-38, (R) or (S)-1-(2-(Aminomethyl)-4-oxo-4H-chromene-6-carbonyl)pyrrolidine-3-carboxylic Acid hydrochloride]
- IC50: > 1000 nM

SMILES: NCc1cc(=O)c2cc(Br)ccc2o1 [Compound 1-1, 2-(Aminomethyl)-6-bromo-4H-chromen-4-one hydrochloride]
- IC50: < 300 nM

SMILES: NCc1cc(=O)c2ccc(Br)cc2o1 [Compound 1-2, 2-(Aminomethyl)-7-bromo-4H-chromen-4-one hydrochloride]
- IC50: < 300 nM

SMILES: C#Cc1ccc2oc(CN)cc(=O)c2c1 [Compound 1-3, 2-(Aminomethyl)-6-ethynyl-4H-chromen-4-one hydrochloride]
- IC50: < 300 nM

SMILES: CC(C)(O)C#Cc1ccc2oc(CN)cc(=O)c2c1 [Compound 1-4, 2-(Aminomethyl)-6-(3-hydroxy-3-methylbut-1-yn-1-yl)-4H-chromen-4-one hydrochloride]
- IC50: < 300 nM

SMILES: C=C(C)C#Cc1ccc2oc(CN)cc(=O)c2c1 [Compound 1-5, 2-(Aminomethyl)-6-(3-methylbut-3-en-1-yn-1-yl)-4H-chromen-4-one trifluoroacetate]
- IC50: < 300 nM

SMILES: NCc1cc(=O)c2cc(-c3ccccc3)ccc2o1 [Compound 1-6, 2-(Aminomethyl)-6-phenyl-4H-chromen-4-one hydrochloride]
- IC50: < 300 nM

SMILES: NCc1cc(=O)c2cc(-c3ccccn3)ccc2o1 [Compound 1-7, 2-(Aminomethyl)-6-(pyridin-2-yl)-4H-chromen-4-one hydrochloride]
- IC50: < 300 nM

SMILES: NCc1cc(=O)c2cc(-c3cccnc3)ccc2o1 [Compound 1-8, 2-(Aminomethyl)-6-(pyridin-3-yl)-4H-chromen-4-one hydrochloride]
- IC50: < 300 nM

SMILES: NCc1cc(=O)c2cc(-c3cnc4ccccc4c3)ccc2o1 [Compound 1-9, 2-(Aminomethyl)-6-(quinolin-3-yl)-4H-chromen-4-one hydrochloride]
- IC50: < 300 nM

SMILES: NCc1cc(=O)c2cc(-n3cccn3)ccc2o1 [Compound 1-10, 2-(Aminomethyl)-6-(1H-pyrazol-1-yl)-4H-chromen-4-one hydrochloride]
- IC50: < 300 nM

SMILES: NCc1cc(=O)c2ccc(-n3cccn3)cc2o1 [Compound 1-11, 2-(Aminomethyl)-7-(1H-pyrazol-1-yl)-4H-chromen-4-one hydrochloride]
- IC50: < 300 nM

SMILES: Cn1cc(-c2ccc3oc(CN)cc(=O)c3c2)cn1 [Compound 1-12, 2-(Aminomethyl)-6-(1-methyl-1H-pyrazol-4-yl)-4H-chromen-4-one hydrochloride]
- IC50: < 300 nM

SMILES: Cn1cc(-c2ccc3oc(CN)cc(=O)c3c2)nn1 [Compound 1-13, 2-(Aminomethyl)-6-(1-methyl-1H-1,2,3-triazol-4-yl)-4H-chromen-4-one hydrochloride]
- IC50: < 300 nM

SMILES: NCc1cc(=O)c2cc(-c3cn(-c4ccccc4)nn3)ccc2o1 [Compound 1-14, 2-(Aminomethyl)-6-(1-phenyl-1H-1,2,3-triazol-4-yl)-4H-chromen-4-one hydrochloride]
- IC50: < 300 nM

SMILES: NCc1cc(=O)c2cc(-c3cn(Cc4ccccc4)nn3)ccc2o1 [Compound 1-15, 2-(Aminomethyl)-6-(1-benzyl-1H-1,2,3-triazol-4-yl)-4H-chromen-4-one hydrochloride]
- IC50: < 300 nM

SMILES: NCc1cc(=O)c2cc(-c3cn(CCO)nn3)ccc2o1 [Compound 1-16, 2-(Aminomethyl)-6-(1-(2-hydroxyethyl)-1H-1,2,3-triazol-4-yl)-4H-chromen-4-one hydrochloride]
- IC50: 300 to 1000 nM

SMILES: CN(C)C(=O)Cn1cc(-c2ccc3oc(CN)cc(=O)c3c2)nn1 [Compound 1-17, 2-(4-(2-(Aminomethyl)-4-oxo-4H-chromen-6-yl)-1H-1,2,3-triazol-1-yl)-N,N-dimethylacetamide hydrochloride]
- IC50: < 300 nM

SMILES: CN(C)C(=O)c1ccc2oc(CN)cc(=O)c2c1 [Compound 1-18, 2-(Aminomethyl)-N,N-dimethyl-4-oxo-4H-chromene-6-carboxamide hydrochloride]
- IC50: > 1000 nM

SMILES: NCc1cc(=O)c2cc(C(=O)N3CCCCC3)ccc2o1 [Compound 1-19, 2-(Aminomethyl)-6-(piperidine-1-carbonyl)-4H-chromen-4-one hydrochloride]
- IC50: 300 to 1000 nM

SMILES: NCc1cc(=O)c2cc(N3CC[C@H](O)C3)ccc2o1 [Compound 1-20, (S)-2-(Aminomethyl)-6-(3-hydroxypyrrolidin-1-yl)-4H-chromen-4-one hydrochloride]
- IC50: 300 to 1000 nM

SMILES: NCc1cc(=O)c2cc(C(=O)NCCn3cncn3)ccc2o1 [Compound 1-21, N-(2-(1H-1,2,4-Triazol-1-yl)ethyl)-2-(aminomethyl)-4-oxo-4H-chromene-6-carboxamide hydrochloride]
- IC50: 300 to 1000 nM

SMILES: NCc1cc(=O)c2cc(C(=O)NCCS(N)(=O)=O)ccc2o1 [Compound 1-22, 2-(Aminomethyl)-4-oxo-N-(2-sulfamoylethyl)-4H-chromene-6-carboxamide hydrochloride]
- IC50: 300 to 1000 nM

SMILES: NCc1cc(=O)c2cc(C(=O)N3CC[C@@H](N)C3)ccc2o1 [Compound 1-23, (R)-2-(Aminomethyl)-6-(3-aminopyrrolidine-1-carbonyl)-4H-chromen-4-one dihydrochloride]
- IC50: 300 to 1000 nM

SMILES: COC(=O)[C@@H]1CCN(C(=O)c2ccc3oc(CN)cc(=O)c3c2)C1 [Compound 1-24, Methyl (R)-1-(2-(aminomethyl)-4-oxo-4H-chromene-6-carbonyl)pyrrolidine-3-carboxylate hydrochloride]
- IC50: 300 to 1000 nM

SMILES: CS(=O)(=O)CCNC(=O)c1ccc2oc(CN)cc(=O)c2c1 [Compound 1-26, 2-(Aminomethyl)-N-(2-(methylsulfonyl)ethyl)-4-oxo-4H-chromene-6-carboxamide hydrochloride]
- IC50: 300 to 1000 nM

SMILES: COc1ccc2oc(CN)cc(=O)c2c1 [Compound 1-27, 2-(Aminomethyl)-6-methoxy-4H-chromen-4-one hydrochloride]
- IC50: < 300 nM

SMILES: COc1ccc2c(=O)cc(CN)oc2c1 [Compound 1-28, 2-(Aminomethyl)-7-methoxy-4H-chromen-4-one hydrochloride]
- IC50: < 300 nM

SMILES: NCc1cc(=O)c2ccc(OCc3ccccc3)cc2o1 [Compound 1-29, 2-(Aminomethyl)-7-(benzyloxy)-4H-chromen-4-one hydrochloride]
- IC50: < 300 nM

SMILES: NCc1cc(=O)c2cc(OCc3ccccc3)ccc2o1 [Compound 1-30, 2-(Aminomethyl)-6-(benzyloxy)-4H-chromen-4-one hydrochloride]
- IC50: < 300 nM

SMILES: C#Cc1ccc2c(=O)cc(CN)oc2c1 [Compound 1-31, 2-(aminomethyl)-7-ethynyl-4H-chromen-4-one hydrochloride]
- IC50: 300 to 1000 nM

SMILES: CN(C)C(=O)COc1ccc2c(=O)cc(CN)oc2c1 [Compound 1-32, 2-((2-(Aminomethyl)-4-oxo-4H-chromen-7-yl)oxy)-N,N-dimethylacetamide hydrochloride]
- IC50: 300 to 1000 nM

SMILES: NCc1cc(=O)c2ccc(-c3cn(-c4ccccc4)nn3)cc2o1 [Compound 1-33, 2-(Aminomethyl)-7-(1-phenyl-1H-1,2,3-triazol-4-yl)-4H-chromen-4-one hydrochloride]
- IC50: < 300 nM

SMILES: NCc1cc(=O)c2cc(OCC(=O)O)ccc2o1 [Compound 1-34, 2-((2-(Aminomethyl)-4-oxo-4H-chromen-6-yl)oxy)acetic acid hydrochloride]
- IC50: 300 to 1000 nM

SMILES: CN(C)C(=O)COc1ccc2oc(CN)cc(=O)c2c1 [Compound 1-35, 2-((2-(Aminomethyl)-4-oxo-4H-chromen-6-yl)oxy)-N,N-dimethylacetamide hydrochloride]
- IC50: 300 to 1000 nM

SMILES: COC(=O)[C@H]1CCN(C(=O)c2ccc3oc(CN)cc(=O)c3c2)C1 [Compound 1-36, Methyl (S)-1-(2-(aminomethyl)-4-oxo-4H-chromene-6-carbonyl)pyrrolidine-3-carboxylate hydrochloride]
- IC50: > 1000 nM

— patent US20180215727A1, “LYSYL OXIDASE-LIKE 2 INHIBITORS AND USES THEREOF” (PharmAkea, Inc., priority 2015, published 2018)
